# pEC50: −log10 of the molar value. Like-named read-outs stand apart in the source and are kept apart here.
# Key:
# Heliothis virescens = details: against Heliothis virescens; cited from earlier work
# Candida albicans = details: against Candida albicans; cited from earlier work
# [1] = system: Gram negative and Gram-positive bacteria; details: series of Gram negative and Gram-positive bacteria; cited from earlier work
# wild-type RXR (GBD:RXR) = wild-type RXR (GBD:RXR) (Homo sapiens, UniProt P19793); assay: cell-based
# Text: (§1) Liquid Media: The method used for quantitation was modified from a method developed by Miller and known in the art.
# (§2) The twelve plasmids rescued from the selective plates were retransformed into PJ69-4A to confirm that their phenotype is plasmid linked. The strain PJ69-4A was engineered to contain a Gal4 response element controlling expression of the LacZ gene, in addition to the ADE2 gene. […] The selection assay quantifies yeast growth occurring through transcriptional activation of the ADE2 gene, while the screen quantifies β-galactosidase activity occurring though transcriptional activation of the LacZ gene.
# Three plasmids were used as controls in the screen and selection assays. […] This plasmid provides a measure of background noise in both the selection and screen assays.
# [2] = target: T1, RXR variant I268A; I310S; F313V; L436F (Homo sapiens, UniProt P19793, F313V/I268A/I310S/L436F); type: cell-based; details: Yeast, L436F (first line, r10)
# T1 construct: express the Gal4 DBD fused with a variant RXR LBD (GBD:RXR); expressed in transfected cells; host or cells: Saccharomyces cerevisiae PJ69-4A
# Text: as §1, §2
# [3] = target: T2, RXR variant I268A; I310S; F313V; L436F (Homo sapiens, UniProt P19793, F313V/I268A/I310S/L436F); assay: cell-based; design: species or system yeast
# T2 sequence (P19793 225-462 I268A/I310S/F313V/L436F): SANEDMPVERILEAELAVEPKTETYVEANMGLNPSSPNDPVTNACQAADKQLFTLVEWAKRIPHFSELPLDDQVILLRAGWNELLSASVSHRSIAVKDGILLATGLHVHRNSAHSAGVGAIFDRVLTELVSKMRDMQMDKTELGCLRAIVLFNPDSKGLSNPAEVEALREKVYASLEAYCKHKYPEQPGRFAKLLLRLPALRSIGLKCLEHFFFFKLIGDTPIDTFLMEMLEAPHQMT
# Text: as §1, §2
# [4] = target: RXR variant I268A; A272V; I310A; F313A; L436F (Homo sapiens, UniProt P19793, A272V/F313A/I268A/I310A/L436F); details: Yeast
# Text: as §1, §2
# Target sequence in this assay (P19793 227-458 I268A/A272V/I310A/F313A/L436F limits assumed): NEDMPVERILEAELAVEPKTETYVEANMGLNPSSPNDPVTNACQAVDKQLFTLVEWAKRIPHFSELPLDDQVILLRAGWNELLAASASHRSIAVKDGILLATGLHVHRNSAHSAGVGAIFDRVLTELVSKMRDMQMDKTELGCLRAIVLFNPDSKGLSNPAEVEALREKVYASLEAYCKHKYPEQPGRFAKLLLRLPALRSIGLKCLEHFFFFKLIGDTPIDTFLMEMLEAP
# Target sequence in this assay (Q9Y6Q9 1-1413 partner limits assumed): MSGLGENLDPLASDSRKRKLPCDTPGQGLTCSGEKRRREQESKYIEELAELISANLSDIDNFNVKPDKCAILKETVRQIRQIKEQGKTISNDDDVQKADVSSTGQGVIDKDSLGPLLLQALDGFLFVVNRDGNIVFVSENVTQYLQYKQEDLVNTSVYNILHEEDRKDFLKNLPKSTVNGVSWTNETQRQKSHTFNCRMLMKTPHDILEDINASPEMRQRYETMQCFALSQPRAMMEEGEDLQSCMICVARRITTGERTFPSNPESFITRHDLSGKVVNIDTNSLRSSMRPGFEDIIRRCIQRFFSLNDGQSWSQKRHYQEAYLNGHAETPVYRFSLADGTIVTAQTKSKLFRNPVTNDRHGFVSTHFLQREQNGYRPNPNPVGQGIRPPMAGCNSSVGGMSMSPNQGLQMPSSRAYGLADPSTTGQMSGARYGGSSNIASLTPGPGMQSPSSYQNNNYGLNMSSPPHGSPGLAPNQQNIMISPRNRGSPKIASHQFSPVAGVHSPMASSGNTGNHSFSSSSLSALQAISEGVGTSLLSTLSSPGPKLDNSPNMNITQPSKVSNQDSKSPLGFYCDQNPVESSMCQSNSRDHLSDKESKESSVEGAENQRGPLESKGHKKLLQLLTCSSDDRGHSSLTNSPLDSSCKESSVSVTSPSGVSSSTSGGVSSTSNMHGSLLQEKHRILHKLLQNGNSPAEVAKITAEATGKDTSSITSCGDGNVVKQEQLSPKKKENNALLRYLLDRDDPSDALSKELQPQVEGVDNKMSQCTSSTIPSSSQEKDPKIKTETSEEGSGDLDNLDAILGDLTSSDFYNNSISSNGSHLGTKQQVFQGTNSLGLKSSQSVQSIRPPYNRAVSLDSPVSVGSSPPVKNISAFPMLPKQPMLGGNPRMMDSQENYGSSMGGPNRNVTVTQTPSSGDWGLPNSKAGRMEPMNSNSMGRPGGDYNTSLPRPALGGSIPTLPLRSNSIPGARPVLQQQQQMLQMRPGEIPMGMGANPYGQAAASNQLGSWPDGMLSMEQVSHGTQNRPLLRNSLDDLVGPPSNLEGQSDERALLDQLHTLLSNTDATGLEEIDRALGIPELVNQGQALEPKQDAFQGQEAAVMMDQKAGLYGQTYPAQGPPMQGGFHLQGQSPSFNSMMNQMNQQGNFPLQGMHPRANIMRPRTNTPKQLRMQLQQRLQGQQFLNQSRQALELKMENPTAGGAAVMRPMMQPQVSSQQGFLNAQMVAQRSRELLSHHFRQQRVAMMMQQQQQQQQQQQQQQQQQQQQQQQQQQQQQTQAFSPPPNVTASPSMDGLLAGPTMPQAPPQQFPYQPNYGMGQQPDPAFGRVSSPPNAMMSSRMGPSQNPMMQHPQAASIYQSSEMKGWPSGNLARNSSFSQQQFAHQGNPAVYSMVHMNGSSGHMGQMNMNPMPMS
# [5] = target: RXR variant I268A; I310A; F313A; L436F (Homo sapiens, UniProt P19793, F313A/I268A/I310A/L436F); details: Yeast, relative to wild type with 10 μM 9cRA
# Text: as §1, §2
# [6] = target: RXR variant I268A; I310M; F313A; L436T (Homo sapiens, UniProt P19793, F313A/I268A/I310M/L436T); details: Yeast
# Text: as §1, §2
# [7] = target: RXR variant I268L; A271V; I310L; F313L (Homo sapiens, UniProt P19793, A271V/F313L/I268L/I310L); details: Yeast
# Text: as §1, §2
# [8] = target: RXR variant I268L; I310M; F313V (Homo sapiens, UniProt P19793, F313V/I268L/I310M)
# Text: as §1, §2
# [9] = target: RXR variant I268L; I310V; F313I (Homo sapiens, UniProt P19793, F313I/I268L/I310V); details: Yeast
# Text: as §1, §2
# [10] = target: RXR variant I268V; A271V; I310L; F313V (Homo sapiens, UniProt P19793, A271V/F313V/I268V/I310L); details: Yeast
# Text: as §1, §2
# [11] = target: T3, RXR variant I268V; A272V; I310L; F313M (Homo sapiens, UniProt P19793, A272V/F313M/I268V/I310L)
# T3 sequence (P19793 227-462 I268V/A272V/I310L/F313M): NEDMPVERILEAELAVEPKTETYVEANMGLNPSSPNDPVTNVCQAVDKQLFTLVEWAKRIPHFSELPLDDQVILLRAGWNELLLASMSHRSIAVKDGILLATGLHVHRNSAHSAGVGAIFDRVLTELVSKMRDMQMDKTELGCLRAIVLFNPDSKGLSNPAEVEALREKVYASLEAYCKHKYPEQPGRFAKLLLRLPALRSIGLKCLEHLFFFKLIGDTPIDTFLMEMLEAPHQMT
# Text: as §1, §2
# [12] = target: RXR variant I268V; A272V; I310M; F313S; L436M (Homo sapiens, UniProt P19793, A272V/F313S/I268V/I310M/L436M); details: Yeast
# Text: as §1, §2
# [13] = target: RXR variant I268V; I310V; F313S (Homo sapiens, UniProt P19793, F313S/I268V/I310V); details: Yeast
# Text: as §1, §2
# wtRXR = wtRXR (Homo sapiens, UniProt P19793); assay: cell-based
# Text: (§3) RLU=relative light units.
# (§4) Mammalian Luciferase Assay: Performed with HEK 293 cells as previously described, and known in the art.
# (§5) Five variants were chosen for testing in mammalian cell culture for comparison of the activation profiles (I268A;I310A;F313A;L436F,I268V;A272V;I310L;F313M, I268A;I310S;F313A;L436F, I268V;A272V;I310M;F313S;L436M, and I286A;I310M;F313A;L436T). The genes for these variants were removed from yeast expression plasmids and ligated into mammalian expression plasmids.
# [14] = target: T2, RXR variant I268A; I310S; F313V; L436F; assay: cell-based
# [15] = target: RXR variant I268A; I310A; F313A; L436F (Homo sapiens, UniProt P19793, F313A/I268A/I310A/L436F)
# Text: as §3, §4, §5
# [16] = target: RXR variant I268A; I310M; F313A; L436T (Homo sapiens, UniProt P19793, F313A/I268A/I310M/L436T)
# Text: as §3, §4, §5
# [17] = target: RXR variant I268V; A272V; I310L; F313M (Homo sapiens, UniProt P19793, A272V/F313M/I268V/I310L); remark: listed apart in the source
# Text: as §3, §4, §5
# Target sequence in this assay (P19793 whole entry I268V/A272V/I310L/F313M): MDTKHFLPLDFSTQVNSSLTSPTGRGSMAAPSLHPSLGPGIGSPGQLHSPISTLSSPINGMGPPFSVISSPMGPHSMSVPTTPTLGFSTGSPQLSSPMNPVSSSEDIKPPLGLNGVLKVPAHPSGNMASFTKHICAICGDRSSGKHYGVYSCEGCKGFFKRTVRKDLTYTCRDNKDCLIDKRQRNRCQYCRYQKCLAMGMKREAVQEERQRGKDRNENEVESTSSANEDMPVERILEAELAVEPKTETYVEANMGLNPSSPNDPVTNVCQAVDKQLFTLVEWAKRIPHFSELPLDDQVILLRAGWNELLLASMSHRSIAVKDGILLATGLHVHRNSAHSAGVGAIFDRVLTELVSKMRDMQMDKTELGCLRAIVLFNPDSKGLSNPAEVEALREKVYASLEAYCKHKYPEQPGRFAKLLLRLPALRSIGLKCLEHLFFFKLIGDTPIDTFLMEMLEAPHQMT
# [18] = target: RXR variant I268V; A272V; I310M; F313S; L436M (Homo sapiens, UniProt P19793, A272V/F313S/I268V/I310M/L436M)
# Text: as §3, §4, §5
# Target sequence in this assay (P19793 whole entry I268V/A272V/I310M/F313S/L436M): as the sequence (P19793 whole entry I268V/A272V/I310L/F313M) above, with L310M, M313S, L436M counted along it
# [19] = target: T4, RXR variant I268A; A272V; I310A; F313A; L436F (Homo sapiens, UniProt P19793, A272V/F313A/I268A/I310A/L436F); assay: Mammalian luciferase assay in HEK 293 cells; type: cell-based
# T4 construct: expressed in transfected cells; host or cells: HEK 293
# Text: as §3, §4
# [20] = target: T5, RXR variant I268L; A271V; I310L; F313L (Homo sapiens, UniProt P19793, A271V/F313L/I268L/I310L); assay: Mammalian luciferase assay in HEK 293 cells; type: cell-based
# T5 construct: expressed in transfected cells; host or cells: HEK 293
# Text: as §3, §4
# [21] = target: T6, RXR variant Q275C;I310M;F313I (Homo sapiens, UniProt P19793, F313I/I310M/Q275C); details: in yeast; previous best LG335 receptor Q275C;I310M;F313I; cited from earlier work
# T6 construct: expressed in transfected cells; host or cells: yeast
# [22] = in vivo; cited from earlier work
# [23] = relative to wild type with 10 μM 9cRA
# [24] = HEK 293, relative to wild type with 10 μM 9cRA
# RXR variant I268L; I310M; F313V, sequence (P19793 227-458 I268L/I310M/F313V limits assumed): as the sequence (P19793 227-458 I268A/A272V/I310A/F313A/L436F limits assumed) above, with A42L, V46A, A84M, A87V, F210L counted along it
# RXR variant I268L; I310M; F313V, sequence (Q9Y6Q9 1-1413 partner limits assumed): as the sequence (Q9Y6Q9 1-1413 partner limits assumed) above
# RXR variant I268V; I310V; F313S, sequence (P19793 227-458 I268V/I310V/F313S limits assumed): as the sequence (P19793 227-458 I268A/A272V/I310A/F313A/L436F limits assumed) above, with A42V, V46A, A84V, A87S, F210L counted along it
# wtRXR, sequence (P19793 whole entry): as the sequence (P19793 whole entry I268V/A272V/I310L/F313M) above, with V268I, V272A, L310I, M313F counted along it
smiles,measurement,setting,value
C/C1=C\[C@H](C)C[C@H](C)OC(=O)C[C@H](c2ccc(O)cc2)NC(=O)[C@@H](Cc2c(Br)[nH]c3ccccc23)N(C)C(=O)[C@H](C)NC(=O)[C@@H](C)C1 [Jaspamide],insecticidal activity,Heliothis virescens,insecticidal
same,fungicidal activity,Candida albicans,fungicidal activity
same,activity against bacteria,[1],completely inactive
"CCCc1cc2c(cc1C(=O)c1ccc(C(=O)O)cc1)C(C)(C)CCC2(C)C [LG335, 4-[(3-Propyl-5,5,8,8-tetramethyl-5,6,7,8-tetrahydro-2-naphtyl)carbonyl]benzoic Acid]",pEC50,wild-type RXR (GBD:RXR),< 5.00
same,Eff (efficacy),"wild-type RXR (GBD:RXR); Yeast, WT, maximum increase in activation relative to wild type with 10 μM 9cRA",10%
same,EC50,[2],470 nM
same,Eff (efficacy),[2]; [23],60%
same,pEC50,"[3]; Yeast, I268A, I310S, F313V, L436F (second line, r11)",6.37
same,Emax,[3]; read-out: Eff (efficacy),50%
same,EC50,[4],530 nM
same,Eff (efficacy),[4]; [23],30%
same,Eff (efficacy),[5],70%
same,EC50,[6],610 nM
same,Eff (efficacy),[6]; [23],10%
same,EC50,[7],530 nM
same,Eff (efficacy),[7]; [23],20%
same,activity in the screen assay,"[8]; I268L;I310M;F313V, high basal activity",increase activity at micromolar concentrations
same,EC50,"[8]; Yeast, I268L, I310M, F313V",610 nM
same,Eff (efficacy),"[8]; Yeast, I268L, I310M, F313V, relative to wild type with 10 μM 9cRA",20%
same,EC50,[9],>2000 nM
same,Eff (efficacy),[9]; [23],10%
same,EC50,[10],650 nM
same,Eff (efficacy),[10]; [23],10%
same,Eff (efficacy),"[11]; Yeast, I268V, A272V, I310L, F313M, relative to wild type with 10 μM 9cRA",60%
same,EC50,"[11]; in yeast, I268V;A272V;I310L;F313M",40 nM
same,"improvement in EC50 over the previous best LG335 receptor, Q275C;I310M;F313I","[11]; in yeast, LG335-I268V;A272V;I310L;F313M ligand receptor pair",25 fold
same,EC50,[12],680 nM
same,Eff (efficacy),[12]; [23],30%
same,EC50,[13],440 nM
same,Eff (efficacy),[13]; [23],10%
same,pEC50,wtRXR,6.52
same,Eff (efficacy),"wtRXR; HEK 293, WT, relative to wild type with 10 μM 9cRA",10%
same,Emax,"[14]; HEK293, read-out: Eff (efficacy)",20%
same,pEC50,"[14]; HEK 293, I268A, I310S, F313V, L436F (second line, r11)",6.16
same,EC50,[15]; HEK 293,30 nM
same,Eff (efficacy),[15]; [24],50%
same,EC50,[16]; HEK 293,140 nM
same,Eff (efficacy),[16]; [24],20%
same,EC50,[17]; HEK 293,1 nM
same,Eff (efficacy),[17]; [24],30%
same,EC50,[18]; HEK 293,180 nM
same,Eff (efficacy),[18]; [24],30%
same,EC50,[19],1 nM
same,EC50,[20],1 nM
same,EC50,[21],1000 nM
CO/C(=C/C(=O)N(C)C(Cc1ccccc1)c1nccs1)CC(C)C(Cl)(Cl)Cl (stereo not shown) [Barbamide],molluscicidal activity,[22],potent mollucuscidal activity
